Tests used:
[1] = tested on: ovariectomated rats; experiment: Oral estrogenic effects: uterus weights in ovariectomated rats; format: in vivo, rat
Source text: (§1) The laboratory animals, adult female rats (breeder: HSD/WIN:WU) were ovariectomated on day 14. Treatment started two weeks later by a single oral application per day of the respective test substance. The dosages given for esters refer to the steroid portion of the substances. The tests were made in three groups (A, B, C) at various points in time. This is why there is a deviation in control group values. The tests of series A, B, and C can therefore be compared among each other if the values for the respective control groups are taken into account.
(§2) The procedure of allocating animals to groups was randomized. The experiment was carried out as a block test. The animals were weighed at the beginning and at the end of the experiment.
(§3) The start of treatment was defined as day 1 (=d1), treatment was finished on day 7 (=d7); the animals were killed on day 8, various organs (uteri, adrenal glands, liver) were removed, weighed and deep-frozen (−196° C.) for further examination.

[2] = tested on: ovariectomated rats; experiment: Oral estrogenic effects: weights of adrenal glands in ovariectomated rats; format: in vivo, rat
Source text: as §1, §2, §3

[3] = tested on: ovariectomated rats; experiment: Hepatic parameters: serum angiotensin I, modified RIA for renin activity; format: in vivo, rat; parameters: Angiotensin I: unit not given here; conditions: for Angiotensin I: Experiment A
Source text: as §1, §2, §3
(§4) Blood was taken from the retrobulbar plexus under ether anaesthesia prior to treatment (d0), and on (d4) and (d8). IGF1, angiotensin I, cholesterol and HDL cholesterol were determined in the serum obtained.
angiotensin: modified RIA for renin activity by Sorin Co.

[4] = tested on: ovariectomated rats; experiment: Oral estrogen treatment: serum IGF1 (somatomedin C), RIA; format: in vivo, rat; parameters: unit not given here; conditions: Experiment A
Source text: as §1, §2, §3, §4
IGF1: RIA by bioMérieux Co.;

[5] = tested on: ovariectomated rats; experiment: Hepatic parameters: HDL cholesterol levels in serum, enzymatic test; format: in vivo, rat; conditions: Experiment A
Source text: as §1, §2, §3, §4
(§5) cholesterol/HDL: enzymatic tests, photometric determination, reagents by Dr Bruno Lange GmbH.

[6] = tested on: ovariectomated rats; experiment: Hepatic parameters: total cholesterol levels in serum, enzymatic test; format: in vivo, rat; conditions: for Total cholesterol levels (mean value ± standard deviation): Experiment A
Procedure: The laboratory animals, adult female rats (breeder: HSD/WIN:WU) were ovariectomated on day 14. Treatment started two weeks later by a single oral application per day of the respective test substance. The dosages given for esters refer to the steroid portion of the substances. The tests were made in three groups (A, B, C) at various points in time.
as §2, §3, §4, §5

[7] = oral, humans, Goldzieher study; cited from earlier work
[8] = Experiment C, 10 μg/animal/day p.o. d1-d7
[9] = day 4, 0.1 μg/animal/day p.o. d1-d7
[10] = day 4, 1 μg/animal/day p.o. d1-d7
[11] = day 4, 10 μg/animal/day p.o. d1-d7
[12] = day 4, 100 μg/animal/day p.o. d1-d7
[13] = day 8, 0.1 μg/animal/day p.o. d1-d7
[14] = day 8, 1 μg/animal/day p.o. d1-d7
[15] = day 8, 10 μg/animal/day p.o. d1-d7
[16] = day 8, 100 μg/animal/day p.o. d1-d7
[17] = 100 μg/animal/day p.o. d1-d7, d 0 (prior to treatment)
[18] = 100 μg/animal/day p.o. d1-d7, d 4
[19] = 100 μg/animal/day p.o. d1-d7, d 8
[20] = Experiment A, 0.1 μg/animal/day p.o. d1-d7
[21] = Experiment A, 1 μg/animal/day p.o. d1-d7
[22] = Experiment A, 10 μg/animal/day p.o. d1-d7
[23] = Experiment A, 100 μg/animal/day p.o. d1-d7
[24] = Experiment B, 10 μg/animal/day p.o. d1-d7

CN(C)S(=O)(=O)Oc1ccc2c(c1)CC[C@@H]1[C@@H]2CC[C@]2(C)[C@@H](O)[C@H](O)C[C@@H]12 [J 989, 16α,17β-Dihydroxy-estra-1,3,5(10)-trien-3-yl N,N-dimethyl-sulfamate]
melting point: 180 to 181 °C | Uterus weights (mean value) [1, 8]: 182.79 mg | Weights of adrenal glands (mean value) [2, 8]: 52.8 mg

CCN(CC)S(=O)(=O)Oc1ccc2c(c1)CC[C@@H]1[C@@H]2CC[C@]2(C)[C@@H](O)[C@H](O)C[C@@H]12 [J 984, 16α,17β-Dihydroxy-estra-1,3,5(10)-trien-3-yl N,N-diethyl-sulfamate]
melting point: 121 to 124 °C | Uterus weights (mean value) [1, 8]: 245.63 mg | Weights of adrenal glands (mean value) [2, 8]: 59.3 mg

C#C[C@]1(O)CC[C@H]2[C@@H]3CCc4cc(OS(=O)(=O)N(CC)CC)ccc4[C@H]3CC[C@@]21C [J 271, 17β-Hydroxy-19-nor-17α-pregna-1,3,5(10)-triene-20-in-3-yl N,N-diethyl-sulfamate]
Angiotensin I [3, 9]: 380.8 ± 35.8 | Angiotensin I [3, 10]: 383.8 ± 47.1 | Angiotensin I [3, 11]: 435.2 ± 53.8 | Angiotensin I [3, 12]: 734.0 ± 75.7 | Angiotensin I [3, 13]: 462.2 ± 71.3 | Angiotensin I [3, 14]: 425.9 ± 43.9 | Angiotensin I [3, 15]: 373.4 ± 42.3 | Angiotensin I [3, 16]: 668.2 ± 68.6 | Effect on angiotensin I (AI) values, in words ([3]; dose of 10 μg/day): no clear effect on AI | Effect on angiotensin I (AI) values, in words ([3]; dose of 100 μg/day): increases in AI values but these are significantly lower than those observed under the influence of EE or J 824 | Influence on the angiotensin I level, summary in words ([3]; dose-action relationships on days 4 and 8): clearly below those for EE | IGF1 (= somatomedin C) [4, 17]: 826.4 ± 96.7 | IGF1 (= somatomedin C) [4, 18]: 593.7 ± 57.0 | IGF1 (= somatomedin C) [4, 19]: 351.5 ± 32.6 | Uterus weights (mean value) [1, 20]: 144.2 mg | Uterus weights (mean value) [1, 21]: 289.9 mg | Uterus weights (mean value) [1, 22]: 605.1 mg | Uterus weights (mean value) [1, 23]: 563.6 mg | Uterus weights (mean value) [1, 24]: 540.8 mg | Oral dose at which the effect on uterus growth has reached a plateau ([1]; oral): 0.01 mg/animal/day | Effects on uterus growth, comparison in words ([1]; oral, versus EE and estradiol): clear superiority to EE and great superiority to estradiol | HDL cholesterol levels (mean value ± standard deviation) [5, 9]: 57.6 ± 6.5 mg/dL | HDL cholesterol levels (mean value ± standard deviation) [5, 10]: 57.1 ± 7.1 mg/dL | HDL cholesterol levels (mean value ± standard deviation) [5, 11]: 54.6 ± 5.7 mg/dL | HDL cholesterol levels (mean value ± standard deviation) [5, 12]: 13.2 ± 14.0 mg/dL | HDL cholesterol levels (mean value ± standard deviation) [5, 13]: 57.3 ± 6.0 mg/dL | HDL cholesterol levels (mean value ± standard deviation) [5, 14]: 59.6 ± 6.8 mg/dL | HDL cholesterol levels (mean value ± standard deviation) [5, 15]: 49.9 ± 6.0 mg/dL | HDL cholesterol levels (mean value ± standard deviation) [5, 16]: 10.7 ± 8.2 mg/dL | Weights of adrenal glands (mean value) [2, 20]: 57.1 mg | Weights of adrenal glands (mean value) [2, 21]: 57.4 mg | Weights of adrenal glands (mean value) [2, 22]: 63.1 mg | Weights of adrenal glands (mean value) [2, 23]: 66.5 mg | Weights of adrenal glands (mean value) [2, 24]: 57.9 mg | Total cholesterol levels (mean value ± standard deviation) [6, 9]: 96.0 ± 15.0 mg/dL | Total cholesterol levels (mean value ± standard deviation) [6, 10]: 108.5 ± 10.3 mg/dL | Total cholesterol levels (mean value ± standard deviation) [6, 11]: 92.4 ± 12.1 mg/dL | Total cholesterol levels (mean value ± standard deviation) [6, 12]: 24.5 ± 14.4 mg/dL | Total cholesterol levels (mean value ± standard deviation) [6, 13]: 91.1 ± 18.3 mg/dL | Total cholesterol levels (mean value ± standard deviation) [6, 14]: 101.4 ± 6.3 mg/dL | Total cholesterol levels (mean value ± standard deviation) [6, 15]: 81.9 ± 12.6 mg/dL | Total cholesterol levels (mean value ± standard deviation) [6, 16]: 18.6 ± 8.3 mg/dL | Drop in total and HDL cholesterol levels in the blood, in words ([6]; highest dose, versus EE): still recognizably lower than that caused by EE | Effect on cholesterol levels in the blood (total and HDL), in words ([6]; up to 10 μg): did not reduce cholesterol levels in the blood

C#C[C@]1(O)CC[C@H]2[C@@H]3CCc4cc(O)ccc4[C@H]3CC[C@@]21C [EE, ethinyl estradiol]
Angiotensin I [3, 9]: 408.2 ± 31.2 | Angiotensin I [3, 10]: 402.2 ± 30.3 | Angiotensin I [3, 11]: 572.2 ± 35.0 | Angiotensin I [3, 12]: 930.1 ± 146.2 | Angiotensin I [3, 13]: 473.7 ± 19.7 | Angiotensin I [3, 14]: 492.6 ± 29.1 | Angiotensin I [3, 15]: 498.7 ± 26.1 | Angiotensin I [3, 16]: 833.1 ± 137.2 | Effect on angiotensin I (AI) values, in words ([3]; doses of 10 or 100 μg, detectable as early as day 4): sharp increases of AI | IGF1 (= somatomedin C) [4, 17]: 704.6 ± 70.4 | IGF1 (= somatomedin C) [4, 18]: 547.0 ± 88.7 | IGF1 (= somatomedin C) [4, 19]: 393.6 ± 71.1 | Uterus weights (mean value) [1, 20]: 152.2 mg | Uterus weights (mean value) [1, 21]: 195.8 mg | Uterus weights (mean value) [1, 22]: 282.4 mg | Uterus weights (mean value) [1, 23]: 441.2 mg | Uterus weights (mean value) [1, 24]: 352.59 mg | HDL cholesterol levels (mean value ± standard deviation) [5, 9]: 49.6 ± 2.9 mg/dL | HDL cholesterol levels (mean value ± standard deviation) [5, 10]: 47.1 ± 8.5 mg/dL | HDL cholesterol levels (mean value ± standard deviation) [5, 11]: 19.5 ± 8.4 mg/dL | HDL cholesterol levels (mean value ± standard deviation) [5, 12]: 3.6 ± 1.3 mg/dL | HDL cholesterol levels (mean value ± standard deviation) [5, 13]: 52.2 ± 4.1 mg/dL | HDL cholesterol levels (mean value ± standard deviation) [5, 14]: 49.5 ± 6.9 mg/dL | HDL cholesterol levels (mean value ± standard deviation) [5, 15]: 26.5 ± 7.8 mg/dL | HDL cholesterol levels (mean value ± standard deviation) [5, 16]: 2.4 ± 0.9 mg/dL | Weights of adrenal glands (mean value) [2, 20]: 53.7 mg | Weights of adrenal glands (mean value) [2, 21]: 58.9 mg | Weights of adrenal glands (mean value) [2, 22]: 59.0 mg | Weights of adrenal glands (mean value) [2, 23]: 80.8 mg | Weights of adrenal glands (mean value) [2, 24]: 56.6 mg | Highest AUC found, measured 0 to 24 hours after application [7]: 2121 pg·h/mL | Lowest AUC, measured 0 to 24 hours after application [7]: 284 pg·h/mL | Total cholesterol levels (mean value ± standard deviation) [6, 9]: 81.0 ± 3.3 mg/dL | Total cholesterol levels (mean value ± standard deviation) [6, 10]: 82.4 ± 15.8 mg/dL | Total cholesterol levels (mean value ± standard deviation) [6, 11]: 30.3 ± 9.6 mg/dL | Total cholesterol levels (mean value ± standard deviation) [6, 12]: 6.8 ± 3.2 mg/dL | Total cholesterol levels (mean value ± standard deviation) [6, 13]: 86.5 ± 9.6 mg/dL | Total cholesterol levels (mean value ± standard deviation) [6, 14]: 80.2 ± 14.4 mg/dL | Total cholesterol levels (mean value ± standard deviation) [6, 15]: 39.8 ± 10.2 mg/dL | Total cholesterol levels (mean value ± standard deviation) [6, 16]: 5.5 ± 3.3 mg/dL

CCN(CC)S(=O)(=O)Oc1ccc2c(c1)CC[C@@H]1[C@@H]2CC[C@]2(C)[C@@H](O)CC[C@@H]12 [J 981, 17β-Hydroxy-estra-1,3,5(10)-trien-3-yl N,N-diethyl-sulfamate]
melting point: 175 to 176 °C | Uterus weights (mean value) [1, 24]: 225.34 mg | Weights of adrenal glands (mean value) [2, 24]: 50.5 mg
